According to patent US7524936B2, “Mitogenic oxygenase regulators” (Emory University, priority 2000, dated 2009):

Columns and labels:
[1] = test system: Nox 4 enzyme and Nox 5 enzyme; test: cell-free assay for Nox 4 / Nox 5 NADPH-oxidase activity (NADPH-dependent chemiluminescence); type: biochemical, human; conditions: MgCl2 1-5 mM; cell lysate, 200 μM NADPH, 10 μM lucigenin, 37° C.
Method: In an alternate and preferred embodiment of the present invention, cells that are stably transfected with Nox 4 (YA28), Nox 5 (YA28) or with empty vector (NEF2) are grown in 10 cm tissue culture plates in medium containing DMEM, 10% calf serum, 100 units/ml penicillin, 100 μg/ml streptomycin, and 1 μg/ml puromycin to approximately 80% confluency. Cells (five tissue culture plates of each cell type) are washed briefly with 5 ml phosphate buffered saline (PBS) then dissociated from the plates with PBS containing 5 mM EDTA. Cells are pelleted by centrifuging briefly at 1000×g.
To permeabilize the cells, freeze thaw lysis is carried out and this is followed by passage of the cell material through a small bore needle. The supernatant is removed and the cells are frozen on dry ice for 15 minutes. […]
The cell lysates are assayed for protein concentration using the BioRad protein assay system. […] The reaction is initiated by adding 1.5 mM NADPH and 75 μM lucigenin to the assay mix to give a final concentration of 200 μM NADPH and 10 μM lucigenin, and the chemiluminescence is monitored immediately. […] The plate is monitored continuously for 60 minutes and the maximal relative luminescence unit (RLU) value for each sample is used for the graph. […]

[2] = test system: lysates of NIH 3T3 cells stably transfected with the human Nox 4 gene or human Nox 5 gene; test: NADPH-dependent superoxide generation, lucigenin luminescence assay in cell lysates; type: biochemical; conditions: 30 μg cell lysate, 200 μM NADPH, 500 μM lucigenin
Method: In one embodiment of the present invention, NIH 3T3 cells stably transfected with the human Nox 4 gene (SEQ ID NO:1) or human Nox 5 gene (SEQ ID NO:3) are analyzed for superoxide generation using the lucigenin (Bis-N-methylacridinium luminescence assay (Sigma, St. Louis, Mo., Li et al. (1998) J. Biol. Chem. 273, 2015-2023). Cells are washed with cold HANKS' solution and homogenized on ice in HANKS' buffer containing 15% sucrose using a Dounce homogenizer. Cell lysates are frozen immediately in a dry ice/ethanol bath. For the assay, 30 μg of cell lysate is mixed with 200 μM NADPH and 500 μM lucigenin. Luminescence is monitored using a LumiCounter (Packard) at three successive one minute intervals and the highest value was used for comparison. Protein concentration is determined by the Bradford method.
Superoxide generation is monitored in lysates from some of the stably transfected cell lines and is compared with superoxide generation by the untransfected NIH 3T3 cell lysates.

For [Cl-].[Cl-].[Mg+2] [MgCl2], the “enhancement of NADPH-oxidase activity” value [1] was “about 2 fold”.

In the case of c1ccc2c(c1)[I+]c1ccccc1-2 [diphenylene iodonium, reference compound], the “luminescent signal (superoxide generation)” value (“luminescent signal” below) [2] is reported as “inhibited”.

With “superoxide dismutase [reference compound]” the “luminescent signal” value [2] was “inhibited”.

B1: p67phox: recombinant human cytosolic factor of the phagocyte respiratory-burst oxidase (protein, UniProt P19878 1-526, looked up)
Neutrophil cytosol factor 2: MSLVEAISLWNEGVLAADKKDWKGALDAFSAVQDPHSRICFNIGCMYTILKNMTEAEKAFTRSINRDKHLAVAYFQRGMLYYQTEKYDLAIKDLKEALIQLRGNQLIDYKILGLQFKLFACEVLYNIAFMYAKKEEWKKAEEQLALATSMKSEPRHSKIDKAMECVWKQKLYEPVVIPVGKLFRPNERQVAQLAKKDYLGKATVVASVVDQDSFSGFAPLQPQAAEPPPRPKTPEIFRALEGEAHRVLFGFVPETKEELQVMPGNIVFVLKKGNDNWATVMFNGQKGLVPCNYLEPVELRIHPQQQPQEESSPQSDIPAPPSSKAPGRPQLSPGQKQKEEPKEVKLSVPMPYTLKVHYKYTVVMKTQPGLPYSQVRDMVSKKLELRLEHTKLSYRPRDSNELVPLSEDSMKDAWGQVKNYCLTLWCENTVGDQGFPDEPKESEKADANNQTTEPQLKKGSQVEALFSYEATQPEDLEFQEGDIILVLSKVNEEWLEGECKGKVGIFPKVFVEDCATTDLESTRREV
With B1 the “luminescent signal” value [2] was “unaffected”.

B2: p47phox: recombinant human cytosolic factor of the phagocyte respiratory-burst oxidase (protein, UniProt P14598 1-390, looked up)
Neutrophil cytosol factor 1: MGDTFIRHIALLGFEKRFVPSQHYVYMFLVKWQDLSEKVVYRRFTEIYEFHKTLKEMFPIEAGAINPENRIIPHLPAPKWFDGQRAAENRQGTLTEYCSTLMSLPTKISRCPHLLDFFKVRPDDLKLPTDNQTKKPETYLMPKDGKSTATDITGPIILQTYRAIANYEKTSGSEMALSTGDVVEVVEKSESGWWFCQMKAKRGWIPASFLEPLDSPDETEDPEPNYAGEPYVAIKAYTAVEGDEVSLLEGEAVEVIHKLLDGWWVIRKDDVTGYFPSMYLQKSGQDVSQAQRQIKRGAPPRRSSIRNAHSIHQRSRKRLSQDAYRRNSVRFLQQRRRQARPGPQSPGSPLEEERQTQRSKPQPAVPPRPSADLILNRCSESTKRKLASAV
With B2 the “luminescent signal” value [2] was “unaffected”.
